# Paper PMC7351617 (Journal of neurochemistry, 2020)
# Tested on: rat adrenal chromaffin cells (native α3β4* / α3β2β4 nAChRs)
compound,measurement,setting,value
CC[C@H](C)[C@@H]1NC(=O)[C@@H]2CCCN2C(=O)[C@H](CO)NC(=O)[C@H](CCSC)NC(=O)[C@H](C)NC(=O)[C@H](CO)NC(=O)[C@@H]2CSSC[C@H](NC(=O)CN)C(=O)N[C@@H](CSSC[C@@H](C(N)=O)NC1=O)C(=O)N[C@@H](CO)C(=O)N[C@@H](Cc1c[nH]cn1)C(=O)N1CCC[C@H]1C(=O)N[C@@H](C(C)C)C(=O)N2 [TxID],Hill slope,,−1.1
same,inhibition of the ACh-evoked currents,,~ 97%
same,IC50,36 h,7 nM
same,ACh-evoked current amplitude in the presence of TxID,SD,−50 ± 24 pA
same,ACh-evoked current amplitude in the presence of TxID alone,SD,−45 ± 26 pA
same,"ACh-evoked currents in the presence of TxID, % of controls",SD,3 ± 1%
